Results published in article doi:10.1101/2023.10.03.560722, “Drug Discovery in Low Data Regimes: Leveraging a Computational Pipeline for the Discovery of Novel SARS-CoV-2 Nsp14-MTase Inhibitors” (bioRxiv, 2024).
Read-outs that look alike come from different tables or passages of the source.

Assays:
[1] = target: ASH1L (Homo sapiens, UniProt Q9NR48); assay: human MTase selectivity panel; type: biochemical
[2] = target: SUV39H2 (Homo sapiens, UniProt Q9H5I1); assay: human MTase selectivity panel; type: biochemical
[3] = target: T1, PRMT4 (Homo sapiens, UniProt Q86X55); assay: human MTase selectivity panel; type: biochemical
T1 sequence (Q86X55 1-608): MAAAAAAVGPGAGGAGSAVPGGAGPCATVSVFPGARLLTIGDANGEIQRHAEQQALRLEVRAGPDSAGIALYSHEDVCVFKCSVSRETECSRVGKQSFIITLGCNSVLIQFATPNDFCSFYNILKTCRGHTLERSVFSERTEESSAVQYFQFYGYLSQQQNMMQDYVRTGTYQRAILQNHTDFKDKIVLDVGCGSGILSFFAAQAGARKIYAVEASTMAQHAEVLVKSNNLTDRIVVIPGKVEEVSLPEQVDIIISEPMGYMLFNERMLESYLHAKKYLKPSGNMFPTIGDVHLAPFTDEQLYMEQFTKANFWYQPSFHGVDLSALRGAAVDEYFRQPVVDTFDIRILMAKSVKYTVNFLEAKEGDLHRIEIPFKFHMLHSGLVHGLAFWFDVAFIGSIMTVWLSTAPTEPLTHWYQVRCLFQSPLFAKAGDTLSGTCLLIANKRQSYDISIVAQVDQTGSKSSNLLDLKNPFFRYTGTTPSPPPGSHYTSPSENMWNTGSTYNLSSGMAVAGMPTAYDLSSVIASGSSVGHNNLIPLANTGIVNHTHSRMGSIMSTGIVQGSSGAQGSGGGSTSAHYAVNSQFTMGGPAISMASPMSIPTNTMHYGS

[4] = target: PRMT6 (Homo sapiens, UniProt Q96LA8); assay: human MTase selectivity panel; type: biochemical
[5] = target: T2, SETD8 (Homo sapiens, UniProt Q9NQR1); assay: human MTase selectivity panel; type: biochemical
T2 sequence (Q9NQR1 1-393): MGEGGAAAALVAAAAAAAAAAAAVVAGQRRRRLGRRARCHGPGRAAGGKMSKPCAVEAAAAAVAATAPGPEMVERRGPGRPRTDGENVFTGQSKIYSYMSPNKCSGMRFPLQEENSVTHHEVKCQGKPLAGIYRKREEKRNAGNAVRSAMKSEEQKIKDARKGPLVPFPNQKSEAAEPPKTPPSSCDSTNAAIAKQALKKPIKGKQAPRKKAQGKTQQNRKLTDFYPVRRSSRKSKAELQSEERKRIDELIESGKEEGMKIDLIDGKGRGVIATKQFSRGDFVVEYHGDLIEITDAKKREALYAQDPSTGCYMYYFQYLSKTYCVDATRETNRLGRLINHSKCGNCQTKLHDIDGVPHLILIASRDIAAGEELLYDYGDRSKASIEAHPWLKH

[6] = target: PRDM9 (Homo sapiens, UniProt Q9NQV7); assay: human MTase selectivity panel; type: biochemical
[7] = target: nsp14 (Severe acute respiratory syndrome coronavirus 2, UniProt P0DTD1); assay: surface plasmon resonance (SPR) binding to immobilized full-length biotinylated nsp14; parameters: species or system SARS-CoV-2; settings: n = 3
Description: For Surface Plasmon Resonance (SPR), the full-length biotinylated nsp14 was immobilized on the flow cell of a SA sensor chip in 1x HBS-EP buffer, achieving a response of 8000 RU. The assay was performed using the same buffer but with 2% DMSO added. Single-cycle kinetics were employed with a contact time of 60 seconds and a dissociation time of 120 seconds, at a flow rate of 75 µL/min. NSC620333 was tested at a concentration of 10 µM as the highest concentration, and a dilution factor of 0.25 was used to yield five different concentrations.

[8] = average ± SD, read-out: Activity (%) at 10 µM Average
[9] = read-out: Activity (%) at 10 µM Replicate 1
[10] = read-out: Activity (%) at 10 µM Replicate 2
[11] = read-out: Activity (%) at 10 µM Replicate 3

PRMT6, sequence (Q96LA8 whole entry): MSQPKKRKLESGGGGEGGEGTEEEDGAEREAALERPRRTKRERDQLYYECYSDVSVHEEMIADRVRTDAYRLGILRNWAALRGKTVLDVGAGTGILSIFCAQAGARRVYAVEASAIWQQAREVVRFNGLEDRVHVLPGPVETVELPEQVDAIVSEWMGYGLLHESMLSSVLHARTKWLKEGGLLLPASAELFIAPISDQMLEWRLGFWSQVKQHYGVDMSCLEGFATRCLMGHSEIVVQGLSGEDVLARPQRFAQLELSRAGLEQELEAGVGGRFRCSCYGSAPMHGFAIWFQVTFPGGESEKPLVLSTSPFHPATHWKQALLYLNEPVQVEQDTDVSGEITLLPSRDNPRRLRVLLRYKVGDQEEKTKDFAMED
SUV39H2, sequence (Q9H5I1 whole entry): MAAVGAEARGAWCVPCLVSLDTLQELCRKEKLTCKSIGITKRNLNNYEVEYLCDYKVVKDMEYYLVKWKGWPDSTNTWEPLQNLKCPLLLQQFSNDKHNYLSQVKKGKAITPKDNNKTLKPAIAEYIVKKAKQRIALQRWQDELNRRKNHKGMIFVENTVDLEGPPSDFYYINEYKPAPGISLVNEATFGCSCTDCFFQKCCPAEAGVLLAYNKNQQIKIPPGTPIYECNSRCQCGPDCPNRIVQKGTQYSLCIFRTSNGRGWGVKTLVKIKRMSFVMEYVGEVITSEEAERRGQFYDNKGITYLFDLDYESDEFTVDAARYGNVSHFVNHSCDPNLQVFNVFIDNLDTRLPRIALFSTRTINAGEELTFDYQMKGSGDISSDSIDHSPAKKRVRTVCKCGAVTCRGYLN
PRDM9, sequence (Q9NQV7 whole entry): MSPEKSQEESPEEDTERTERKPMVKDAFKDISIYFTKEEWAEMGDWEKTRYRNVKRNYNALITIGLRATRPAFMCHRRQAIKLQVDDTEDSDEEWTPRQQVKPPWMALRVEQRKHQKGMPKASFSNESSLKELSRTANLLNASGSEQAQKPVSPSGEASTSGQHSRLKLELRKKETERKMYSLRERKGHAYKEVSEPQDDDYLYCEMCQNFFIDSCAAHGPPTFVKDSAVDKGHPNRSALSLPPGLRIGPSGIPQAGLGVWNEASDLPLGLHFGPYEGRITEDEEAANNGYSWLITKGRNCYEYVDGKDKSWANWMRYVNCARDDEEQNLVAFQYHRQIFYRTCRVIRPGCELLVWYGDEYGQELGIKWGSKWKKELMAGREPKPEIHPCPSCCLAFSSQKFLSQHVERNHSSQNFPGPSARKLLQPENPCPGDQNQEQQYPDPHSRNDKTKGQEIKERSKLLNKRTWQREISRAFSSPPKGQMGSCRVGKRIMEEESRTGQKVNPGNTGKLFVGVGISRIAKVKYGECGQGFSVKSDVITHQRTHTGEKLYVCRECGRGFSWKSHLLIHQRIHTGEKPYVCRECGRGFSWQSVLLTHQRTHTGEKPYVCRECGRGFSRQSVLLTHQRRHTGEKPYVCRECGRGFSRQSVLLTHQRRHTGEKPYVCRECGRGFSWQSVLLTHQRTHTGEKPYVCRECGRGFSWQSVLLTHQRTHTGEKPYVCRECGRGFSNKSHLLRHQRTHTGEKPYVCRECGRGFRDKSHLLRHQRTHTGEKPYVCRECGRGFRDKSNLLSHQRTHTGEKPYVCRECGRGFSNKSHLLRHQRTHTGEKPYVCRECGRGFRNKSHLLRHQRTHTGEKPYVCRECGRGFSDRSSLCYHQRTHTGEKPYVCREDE

## Nc1ncnc2c1ncn2[C@@H]1O[C@H](CSCc2ccc(Cl)cc2)[C@@H](O)[C@H]1O [NSC620333]
[1]; [8]
  activity at 10 µM: 105 ± 8%
[1]; [9]
  activity at 10 µM: 113%
[1]; [10]
  activity at 10 µM: 97%
[1]; [11]
  activity at 10 µM: 104%
[2]; [8]
  activity at 10 µM: 103 ± 7%
[2]; [9]
  activity at 10 µM: 108%
[2]; [10]
  activity at 10 µM: 96%
[2]; [11]
  activity at 10 µM: 106%
[3]; [8]
  activity at 10 µM: 97 ± 3%
[3]; [9]
  activity at 10 µM: 96%
[3]; [10]
  activity at 10 µM: 95%
[3]; [11]
  activity at 10 µM: 101%
[4]; [8]
  activity at 10 µM: 100 ± 3%
[4]; [9]
  activity at 10 µM: 97%
[4]; [10]
  activity at 10 µM: 99%
[4]; [11]
  activity at 10 µM: 103%
[5]; [8]
  activity at 10 µM: 85 ± 6%
[5]; [9]
  activity at 10 µM: 79%
[5]; [10]
  activity at 10 µM: 90%
[5]; [11]
  activity at 10 µM: 86%
[6]; [8]
  activity at 10 µM: 106 ± 3%
[6]; [9]
  activity at 10 µM: 110%
[6]; [10]
  activity at 10 µM: 105%
[6]; [11]
  activity at 10 µM: 104%
[7]; SPR single-cycle kinetics, read-out: KD (kinetic fitting)
  Kd: 0.427 ± 0.084 µM
[7]; SPR steady-state 1:1 binding model, read-out: steady-state KD
  Kd: 0.544 ± 0.022 µM
